According to PMC4490784, “Compensatory induction of MYC expression by sustained CDK9 inhibition via a BRD4-dependent mechanism” (eLife, 2015):

Key:
Assay in all cases: KINOMEscan binding assay
CLK2 = molecular target: T1, CLK2 (Homo sapiens, UniProt P49760); details: read-out: % Retention on Solid Support
T1 construct: purchased DiscoveRx KINOMEscan
Outline: (§1)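 Two inhibitor concentrations (1 and 10 µM) were run. Binding to each kinase was assessed by competition with an active site-directed probe, covering upwards of 400 kinases.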

PHKG1 = molecular target: T2, PHKG1 (Homo sapiens, UniProt Q16816); details: read-out: % Retention on Solid Support
T2 construct: purchased DiscoveRx KINOMEscan
Outline: as §1

DYRK1A = DYRK1A (Homo sapiens, UniProt Q13627); details: read-out: % Retention on Solid Support
Outline: as §1

SYK = molecular target: T3, SYK (Homo sapiens, UniProt P43405)
T3 construct: purchased DiscoveRx KINOMEscan
Outline: as §1

ANKK1 = molecular target: T4, ANKK1 (Homo sapiens, UniProt Q8NFD2); details: read-out: % Retention on Solid Support
T4 construct: purchased DiscoveRx KINOMEscan
Outline: as §1

YSK1 = molecular target: T5, YSK1 (Homo sapiens, UniProt O00506); details: read-out: % Retention on Solid Support
T5 construct: purchased DiscoveRx KINOMEscan
Outline: as §1

VRK2 = molecular target: T6, VRK2 (Homo sapiens, UniProt Q86Y07); details: 1 µM i-CDK9; read-out: % Retention on Solid Support
T6 construct: purchased DiscoveRx KINOMEscan
Outline: as §1

DLK = molecular target: T7, DLK (Homo sapiens, UniProt Q12852)
T7 construct: purchased DiscoveRx KINOMEscan
Outline: as §1

EPHB6 = molecular target: T8, EPHB6 (Homo sapiens, UniProt O15197); details: read-out: % Retention on Solid Support
T8 construct: purchased DiscoveRx KINOMEscan
Outline: as §1

[1] = molecular target: T9, ABL1(H396P)-phosphorylated (Homo sapiens, UniProt P00519, H396P); details: 1 µM i-CDK9; read-out: % Retention on Solid Support
T9 construct: purchased DiscoveRx KINOMEscan
Outline: as §1

ACVR1B = molecular target: T10, ACVR1B (Homo sapiens, UniProt P36896); details: read-out: % Retention on Solid Support
T10 construct: purchased DiscoveRx KINOMEscan
T10 sequence (P36896 24-505): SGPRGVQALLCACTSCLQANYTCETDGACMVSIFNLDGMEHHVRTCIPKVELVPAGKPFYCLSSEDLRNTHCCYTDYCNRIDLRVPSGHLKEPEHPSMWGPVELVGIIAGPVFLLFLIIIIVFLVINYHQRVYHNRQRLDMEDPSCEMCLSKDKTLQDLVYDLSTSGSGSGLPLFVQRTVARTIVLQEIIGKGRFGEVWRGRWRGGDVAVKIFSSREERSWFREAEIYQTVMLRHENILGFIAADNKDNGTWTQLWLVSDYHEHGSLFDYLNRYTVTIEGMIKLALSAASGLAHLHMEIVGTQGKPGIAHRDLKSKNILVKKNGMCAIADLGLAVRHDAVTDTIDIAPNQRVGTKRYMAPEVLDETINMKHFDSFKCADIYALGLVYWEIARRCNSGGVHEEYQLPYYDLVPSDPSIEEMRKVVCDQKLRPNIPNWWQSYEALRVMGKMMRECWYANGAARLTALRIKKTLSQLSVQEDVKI
Outline: as §1

CAMKK1 = molecular target: T11, CAMKK1 (Homo sapiens, UniProt Q8N5S9); details: read-out: % Retention on Solid Support
T11 construct: purchased DiscoveRx KINOMEscan
T11 sequence (Q8N5S9 whole entry): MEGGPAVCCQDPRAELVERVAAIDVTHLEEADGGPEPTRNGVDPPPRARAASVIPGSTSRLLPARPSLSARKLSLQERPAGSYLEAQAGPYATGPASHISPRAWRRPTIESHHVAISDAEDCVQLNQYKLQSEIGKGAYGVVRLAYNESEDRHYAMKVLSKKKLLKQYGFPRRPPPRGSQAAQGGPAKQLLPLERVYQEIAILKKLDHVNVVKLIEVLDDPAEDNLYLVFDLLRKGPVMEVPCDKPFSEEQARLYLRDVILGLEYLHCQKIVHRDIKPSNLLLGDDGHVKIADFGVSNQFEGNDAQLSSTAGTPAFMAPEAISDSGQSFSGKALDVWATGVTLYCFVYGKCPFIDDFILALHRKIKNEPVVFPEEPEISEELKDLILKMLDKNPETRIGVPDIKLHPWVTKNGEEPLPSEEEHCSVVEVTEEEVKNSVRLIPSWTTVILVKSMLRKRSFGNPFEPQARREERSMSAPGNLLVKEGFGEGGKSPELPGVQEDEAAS
Outline: as §1

STK36 = molecular target: T12, STK36 (Homo sapiens, UniProt Q9NRP7); details: read-out: % Retention on Solid Support
T12 construct: purchased DiscoveRx KINOMEscan
Outline: as §1

DYRK2 = molecular target: T13, DYRK2 (Homo sapiens, UniProt Q92630); details: read-out: % Retention on Solid Support
T13 construct: purchased DiscoveRx KINOMEscan
T13 sequence (Q92630 1-601): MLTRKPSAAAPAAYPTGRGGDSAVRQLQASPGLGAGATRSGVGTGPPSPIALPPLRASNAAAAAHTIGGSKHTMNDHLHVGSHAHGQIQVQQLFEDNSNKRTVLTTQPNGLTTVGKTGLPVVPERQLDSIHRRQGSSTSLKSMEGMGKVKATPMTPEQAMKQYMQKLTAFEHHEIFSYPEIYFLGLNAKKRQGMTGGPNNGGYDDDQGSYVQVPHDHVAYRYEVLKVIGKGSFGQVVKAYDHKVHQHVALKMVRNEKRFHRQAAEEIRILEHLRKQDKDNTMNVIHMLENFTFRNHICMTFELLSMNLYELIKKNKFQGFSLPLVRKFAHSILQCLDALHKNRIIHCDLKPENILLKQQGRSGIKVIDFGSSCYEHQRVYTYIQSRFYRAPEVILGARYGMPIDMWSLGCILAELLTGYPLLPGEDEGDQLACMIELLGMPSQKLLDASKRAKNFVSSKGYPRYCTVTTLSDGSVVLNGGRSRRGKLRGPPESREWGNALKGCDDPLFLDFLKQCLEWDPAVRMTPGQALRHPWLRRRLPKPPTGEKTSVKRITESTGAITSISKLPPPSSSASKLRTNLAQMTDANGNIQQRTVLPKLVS
Outline: as §1

NEK7 = molecular target: T14, NEK7 (Homo sapiens, UniProt Q8TDX7); details: read-out: % Retention on Solid Support
T14 construct: purchased DiscoveRx KINOMEscan
Outline: as §1

PRKR = molecular target: T15, PRKR (Homo sapiens, UniProt P19525)
T15 construct: purchased DiscoveRx KINOMEscan
T15 sequence (P19525 whole entry): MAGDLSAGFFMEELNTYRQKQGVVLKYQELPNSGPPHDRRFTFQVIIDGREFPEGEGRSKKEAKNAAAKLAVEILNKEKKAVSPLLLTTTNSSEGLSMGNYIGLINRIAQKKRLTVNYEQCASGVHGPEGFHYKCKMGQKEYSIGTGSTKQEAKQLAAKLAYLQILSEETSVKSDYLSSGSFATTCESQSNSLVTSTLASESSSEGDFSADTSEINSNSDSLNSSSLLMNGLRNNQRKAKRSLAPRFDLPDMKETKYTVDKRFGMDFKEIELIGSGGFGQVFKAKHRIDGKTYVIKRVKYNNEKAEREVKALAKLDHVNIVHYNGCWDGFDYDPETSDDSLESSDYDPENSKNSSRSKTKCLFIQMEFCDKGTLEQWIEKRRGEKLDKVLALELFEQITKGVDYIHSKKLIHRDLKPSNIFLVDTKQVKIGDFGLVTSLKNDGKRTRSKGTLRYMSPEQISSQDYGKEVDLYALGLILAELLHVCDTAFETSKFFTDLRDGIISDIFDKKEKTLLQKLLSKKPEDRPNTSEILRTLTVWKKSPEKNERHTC
Outline: as §1

MYO3B = molecular target: T16, MYO3B (Homo sapiens, UniProt Q8WXR4); details: read-out: % Retention on Solid Support
T16 construct: purchased DiscoveRx KINOMEscan
T16 sequence (Q8WXR4 whole entry): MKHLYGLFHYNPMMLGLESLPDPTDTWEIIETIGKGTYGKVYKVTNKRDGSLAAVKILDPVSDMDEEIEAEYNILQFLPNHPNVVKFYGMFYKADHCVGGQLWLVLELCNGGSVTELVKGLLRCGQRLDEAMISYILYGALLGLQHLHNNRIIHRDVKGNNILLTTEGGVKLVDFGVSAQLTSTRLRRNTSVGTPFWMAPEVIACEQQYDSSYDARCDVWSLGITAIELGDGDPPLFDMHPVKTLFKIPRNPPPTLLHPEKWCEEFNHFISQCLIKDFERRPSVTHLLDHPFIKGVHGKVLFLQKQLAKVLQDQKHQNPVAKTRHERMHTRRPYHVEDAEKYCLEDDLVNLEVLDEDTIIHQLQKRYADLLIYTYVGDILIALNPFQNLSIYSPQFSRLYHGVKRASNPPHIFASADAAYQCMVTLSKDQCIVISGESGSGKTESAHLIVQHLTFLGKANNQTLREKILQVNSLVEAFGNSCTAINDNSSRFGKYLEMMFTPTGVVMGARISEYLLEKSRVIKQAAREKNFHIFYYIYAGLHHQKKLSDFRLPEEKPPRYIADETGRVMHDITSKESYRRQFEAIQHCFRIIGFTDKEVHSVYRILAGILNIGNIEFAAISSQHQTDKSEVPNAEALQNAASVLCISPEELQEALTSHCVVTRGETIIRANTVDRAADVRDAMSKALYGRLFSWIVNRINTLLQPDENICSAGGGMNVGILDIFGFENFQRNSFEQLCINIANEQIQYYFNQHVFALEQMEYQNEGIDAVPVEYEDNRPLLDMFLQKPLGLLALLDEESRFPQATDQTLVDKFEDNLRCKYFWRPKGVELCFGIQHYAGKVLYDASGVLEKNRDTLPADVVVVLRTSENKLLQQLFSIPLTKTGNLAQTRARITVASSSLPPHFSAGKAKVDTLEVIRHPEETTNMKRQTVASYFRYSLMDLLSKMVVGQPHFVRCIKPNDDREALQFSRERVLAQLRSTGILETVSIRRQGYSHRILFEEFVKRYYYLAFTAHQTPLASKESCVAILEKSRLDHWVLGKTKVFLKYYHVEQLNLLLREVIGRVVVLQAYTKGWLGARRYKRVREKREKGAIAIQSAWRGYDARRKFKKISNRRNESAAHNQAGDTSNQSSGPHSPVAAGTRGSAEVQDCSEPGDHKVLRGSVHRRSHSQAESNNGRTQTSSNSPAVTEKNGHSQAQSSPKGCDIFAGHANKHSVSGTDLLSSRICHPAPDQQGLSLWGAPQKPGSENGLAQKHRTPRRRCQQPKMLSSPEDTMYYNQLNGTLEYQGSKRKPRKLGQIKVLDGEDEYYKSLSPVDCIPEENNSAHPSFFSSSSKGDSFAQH
Outline: as §1

RET = molecular target: T17, RET (Homo sapiens, UniProt P07949); details: read-out: % Retention on Solid Support
T17 construct: purchased DiscoveRx KINOMEscan
T17 sequence (P07949 29-1114): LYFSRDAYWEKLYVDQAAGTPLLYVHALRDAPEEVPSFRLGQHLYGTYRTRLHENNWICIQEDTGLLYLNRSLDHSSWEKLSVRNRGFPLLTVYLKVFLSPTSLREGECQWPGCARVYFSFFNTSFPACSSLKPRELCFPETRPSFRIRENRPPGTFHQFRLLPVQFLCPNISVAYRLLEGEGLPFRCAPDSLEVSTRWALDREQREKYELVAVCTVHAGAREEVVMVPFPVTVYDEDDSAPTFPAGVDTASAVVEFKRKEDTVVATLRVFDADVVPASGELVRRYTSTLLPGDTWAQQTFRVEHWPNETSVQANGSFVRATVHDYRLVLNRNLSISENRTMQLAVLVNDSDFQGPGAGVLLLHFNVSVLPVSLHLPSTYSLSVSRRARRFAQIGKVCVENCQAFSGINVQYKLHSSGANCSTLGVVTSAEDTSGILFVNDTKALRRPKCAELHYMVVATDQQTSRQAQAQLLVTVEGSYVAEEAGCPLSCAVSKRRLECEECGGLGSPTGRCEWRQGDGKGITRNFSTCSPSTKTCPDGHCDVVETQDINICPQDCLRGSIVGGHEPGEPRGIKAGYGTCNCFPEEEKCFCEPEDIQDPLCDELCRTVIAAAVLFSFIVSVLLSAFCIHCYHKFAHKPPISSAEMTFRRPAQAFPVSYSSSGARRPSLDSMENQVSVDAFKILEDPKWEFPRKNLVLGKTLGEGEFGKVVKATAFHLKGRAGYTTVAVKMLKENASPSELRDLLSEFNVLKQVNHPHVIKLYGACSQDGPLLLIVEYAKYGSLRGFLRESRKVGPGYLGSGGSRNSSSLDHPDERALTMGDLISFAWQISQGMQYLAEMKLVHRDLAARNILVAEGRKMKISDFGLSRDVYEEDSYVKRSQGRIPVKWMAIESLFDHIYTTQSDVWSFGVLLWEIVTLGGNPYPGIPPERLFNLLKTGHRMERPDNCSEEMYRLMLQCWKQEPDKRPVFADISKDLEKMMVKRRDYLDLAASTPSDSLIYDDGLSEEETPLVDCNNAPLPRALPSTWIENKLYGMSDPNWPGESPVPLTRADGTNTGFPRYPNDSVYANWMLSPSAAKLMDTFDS
Outline: as §1

CSNK2A2 = molecular target: T18, CSNK2A2 (Homo sapiens, UniProt P19784); details: read-out: % Retention on Solid Support
T18 construct: purchased DiscoveRx KINOMEscan
T18 sequence (P19784 whole entry): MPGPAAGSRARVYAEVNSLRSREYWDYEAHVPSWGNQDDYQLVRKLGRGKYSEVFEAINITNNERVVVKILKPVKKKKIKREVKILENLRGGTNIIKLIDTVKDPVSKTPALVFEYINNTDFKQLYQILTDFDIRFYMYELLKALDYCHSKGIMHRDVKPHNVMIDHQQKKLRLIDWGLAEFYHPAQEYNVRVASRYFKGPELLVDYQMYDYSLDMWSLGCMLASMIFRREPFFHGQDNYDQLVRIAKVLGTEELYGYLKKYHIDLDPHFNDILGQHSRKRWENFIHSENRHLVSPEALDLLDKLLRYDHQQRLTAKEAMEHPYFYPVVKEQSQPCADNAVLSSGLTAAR
Outline: as §1

CDKL5 = molecular target: T19, CDKL5 (Homo sapiens, UniProt O76039); details: read-out: % Retention on Solid Support
T19 construct: purchased DiscoveRx KINOMEscan
Outline: as §1

IGF1R = molecular target: T20, IGF1R (Homo sapiens, UniProt P08069); details: read-out: % Retention on Solid Support
T20 construct: purchased DiscoveRx KINOMEscan
Outline: as §1

MYLK2 = molecular target: T21, MYLK2 (Homo sapiens, UniProt Q9H1R3); details: read-out: % Retention on Solid Support
T21 construct: purchased DiscoveRx KINOMEscan
T21 sequence (Q9H1R3 whole entry): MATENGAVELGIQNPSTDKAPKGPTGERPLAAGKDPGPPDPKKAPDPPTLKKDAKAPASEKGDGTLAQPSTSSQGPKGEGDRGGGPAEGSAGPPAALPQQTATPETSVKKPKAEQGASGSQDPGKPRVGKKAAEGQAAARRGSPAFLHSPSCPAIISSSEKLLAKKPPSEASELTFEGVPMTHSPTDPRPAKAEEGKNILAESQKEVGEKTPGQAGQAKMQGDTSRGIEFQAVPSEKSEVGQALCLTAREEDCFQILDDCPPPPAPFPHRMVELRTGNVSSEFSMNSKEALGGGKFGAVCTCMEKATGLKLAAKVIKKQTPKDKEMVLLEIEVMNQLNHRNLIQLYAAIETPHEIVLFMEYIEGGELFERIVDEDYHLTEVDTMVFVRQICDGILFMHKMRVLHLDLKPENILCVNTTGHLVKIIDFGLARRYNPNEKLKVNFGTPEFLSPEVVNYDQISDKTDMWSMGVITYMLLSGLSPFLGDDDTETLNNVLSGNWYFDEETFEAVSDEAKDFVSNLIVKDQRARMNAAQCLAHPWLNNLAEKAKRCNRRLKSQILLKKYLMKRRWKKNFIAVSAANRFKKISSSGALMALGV
Outline: as §1

KIT(V559D) = molecular target: T22, KIT(V559D) (Homo sapiens, UniProt P10721, V559D); details: read-out: % Retention on Solid Support
T22 construct: purchased DiscoveRx KINOMEscan
Outline: as §1

N[C@H]1CC[C@H](Nc2cc(-c3cccc(NCc4cccc(F)c4)n3)c(Cl)cn2)CC1 [i-CDK9, N2′-(trans-4-aminocyclohexyl)-5′-chloro-N6-(3-fluorobenzyl)-2,4′-bipyridine-2′,6-diamine]
remaining binding at 1 µM (CLK2; 1 µM i-CDK9): 61%
remaining binding at 10 µM (CLK2; 10 µM i-CDK9): 26%
remaining binding at 1 µM (PHKG1; 1 µM i-CDK9): 100%
remaining binding at 10 µM (PHKG1; 10 µM i-CDK9): 100%
remaining binding at 1 µM (DYRK1A; 1 µM i-CDK9): 1.3%
remaining binding at 10 µM (DYRK1A; 10 µM i-CDK9): 0%
% Retention on Solid Support (SYK; 1 µM i-CDK9): 86%
% Retention on Solid Support (SYK; 10 µM i-CDK9): 100%
remaining binding at 1 µM (ANKK1; 1 µM i-CDK9): 100%
remaining binding at 10 µM (ANKK1; 10 µM i-CDK9): 100%
remaining binding at 1 µM (YSK1; 1 µM i-CDK9): 98%
remaining binding at 10 µM (YSK1; 10 µM i-CDK9): 96%
remaining binding at 1 µM (VRK2): 100%
% Retention on Solid Support (DLK; 1 µM i-CDK9): 100%
% Retention on Solid Support (DLK; 10 µM i-CDK9): 71%
remaining binding at 1 µM (EPHB6; 1 µM i-CDK9): 47%
remaining binding at 10 µM (EPHB6; 10 µM i-CDK9): 74%
remaining binding at 1 µM [1]: 92%
remaining binding at 1 µM (ACVR1B; 1 µM i-CDK9): 69%
remaining binding at 10 µM (ACVR1B; 10 µM i-CDK9): 100%
remaining binding at 1 µM (CAMKK1; 1 µM i-CDK9): 100%
remaining binding at 10 µM (CAMKK1; 10 µM i-CDK9): 100%
remaining binding at 1 µM (STK36; 1 µM i-CDK9): 92%
remaining binding at 10 µM (STK36; 10 µM i-CDK9): 68%
remaining binding at 1 µM (DYRK2; 1 µM i-CDK9): 7.1%
remaining binding at 10 µM (DYRK2; 10 µM i-CDK9): 33%
remaining binding at 1 µM (NEK7; 1 µM i-CDK9): 100%
remaining binding at 10 µM (NEK7; 10 µM i-CDK9): 100%
% Retention on Solid Support (PRKR; 1 µM i-CDK9): 84%
% Retention on Solid Support (PRKR; 10 µM i-CDK9): 100%
remaining binding at 1 µM (MYO3B; 1 µM i-CDK9): 100%
remaining binding at 10 µM (MYO3B; 10 µM i-CDK9): 36%
remaining binding at 1 µM (RET; 1 µM i-CDK9): 100%
remaining binding at 10 µM (RET; 10 µM i-CDK9): 100%
remaining binding at 1 µM (CSNK2A2; 1 µM i-CDK9): 100%
remaining binding at 10 µM (CSNK2A2; 10 µM i-CDK9): 78%
remaining binding at 1 µM (CDKL5; 1 µM i-CDK9): 52%
remaining binding at 10 µM (CDKL5; 10 µM i-CDK9): 3.8%
remaining binding at 1 µM (IGF1R; 1 µM i-CDK9): 94%
remaining binding at 10 µM (IGF1R; 10 µM i-CDK9): 100%
remaining binding at 1 µM (MYLK2; 1 µM i-CDK9): 100%
remaining binding at 10 µM (MYLK2; 10 µM i-CDK9): 88%
remaining binding at 1 µM (KIT(V559D); 1 µM i-CDK9): 88%
remaining binding at 10 µM (KIT(V559D); 10 µM i-CDK9): 90%
